In patent US20230339981A1, “KRAS G12D MODULATING COMPOUNDS” (priority 2022, published 2023):

Assays:
GDP-loaded KRAS G12D = GDP-loaded KRAS G12D (Homo sapiens (Human), UniProt P01116, G12D); assay: KRAS G12D (GDP) biochemical assay (TR-FRET probe displacement); assay type: binding; conditions: 2 hours
Method in brief: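 TR-FRET probe displacement: 1:3 DMSO serial dilutions pre-incubated 30 min with GDP-bound KRAS G12D, followed by Eu-streptavidin/probe for 2 h at room temperature (Hepes pH 7.4, NaCl, MgCl2, Tween-20 buffer). IC50 defined as concentration halving TR-FRET ratio, from sigmoidal dose-response fit.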

GP2D (KRAS G12D) cells = assay: 2D cell viability assay (CellTiter-Glo); assay type: cell-based; conditions: GP2d, 96 h, 4 days
Method in brief: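 Viability was read by CellTiter-Glo after 4 days at 37 °C of 2D culture of KRAS G12D GP2D cells (1000/well, RPMI, 10% FBS) on pre-spotted threefold compound dilutions. EC50 was fitted with a sigmoidal dose-response model as the point of half-maximal luminescence loss.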

Sequence of GDP-loaded KRAS G12D (P01116-2 other isoform, or with tags, fused parts or gaps G12D): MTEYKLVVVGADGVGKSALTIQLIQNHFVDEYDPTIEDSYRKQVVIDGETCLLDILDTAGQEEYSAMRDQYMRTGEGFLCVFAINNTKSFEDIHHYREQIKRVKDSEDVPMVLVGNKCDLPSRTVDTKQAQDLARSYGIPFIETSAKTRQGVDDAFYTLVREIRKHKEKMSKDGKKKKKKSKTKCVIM

## C#Cc1c(F)ccc2cccc(-c3nc4c5c(nc(OC[C@@]67CCCN6[C@H](COc6cc(C(F)(F)F)ncn6)CC7)nc5c3F)N3C[C@H]5CC[C@H](N5)[C@H]3CC4)c12 [Example 152, (5aR, 6S, 9R)-2-(8-ethynyl-7-fluoronaphthalen-1-yl)-1-fluoro-12-(((3S,7aS)-3-(((6-(trifluoromethyl)pyrimidin-4-yl)oxy)methyl)tetrahydro-1H-pyrrolizin-7a(5H)-yl)methoxy)-4,5,5a,6,7,8,9,10-octahydro-3,10a,11,13,14-pentaaza-6,9-methanonaphtho[1,8-ab]heptalene]
GDP-loaded KRAS G12D
  IC50: 0.1 nM
GP2D (KRAS G12D) cells
  EC50: 5.4 nM

## C#Cc1c(F)ccc2cc(O)cc(-c3nc4c5c(nc(OCC6(CN7CCOCC7)CC6)nc5c3F)N3C[C@H]5CC[C@H](N5)[C@H]3CO4)c12 [Example 28, 5-ethynyl-6-fluoro-4-((5aS,6S,9R)-1-fluoro-12-((1-(morpholinomethyl)cyclopropyl)methoxy)-5a,6,7,8,9,10-hexahydro-5H-4-oxa-3,10a,11,13,14-pentaaza-6,9-methanonaphtho[1,8-ab]heptalen-2-yl)naphthalen-2-ol]
GDP-loaded KRAS G12D
  IC50: 0.6 nM
GP2D (KRAS G12D) cells
  EC50: 7 nM

## C#Cc1c(F)ccc2cc(O)cc(-c3nc4c5c(nc(OC[C@@]67CCCN6C[C@H](F)C7)nc5c3F)N3C[C@H]5CC[C@H](N5)[C@H]3[C@H](C3CC3)O4)c12 [Example 71, 4-((5S,5aS,6S,9R)-5-cyclopropyl-1-fluoro-12-(((2R,7aS)-2-fluorotetrahydro-1H-pyrrolizin-7a(5H)-yl)methoxy)-5a,6,7,8,9,10-hexahydro-5H-4-oxa-3,10a,11,13,14-pentaaza-6,9-methanonaphtho[1,8-ab]heptalen-2-yl)-5-ethynyl-6-fluoronaphthalen-2-ol]
GDP-loaded KRAS G12D
  IC50: 4 nM
GP2D (KRAS G12D) cells
  EC50: 81 nM

## C#Cc1c(F)ccc2cccc(-c3nc4c5c(nc(OC[C@@]67CCCN6C[C@H](F)C7)nc5c3F)N3C[C@H]5CC[C@H](N5)[C@@H]3[C@@H](CC)C4)c12 [Example 91, (5S,5aS,6S,9R)-5-ethyl-2-(8-ethynyl-7-fluoronaphthalen-1-yl)-1-fluoro-12-(((2R,7aS)-2-fluorotetrahydro-1H-pyrrolizin-7a(5H)-yl)methoxy)-4,5,5a,6,7,8,9,10-octahydro-3,10a,11,13,14-pentaaza-6,9-methanonaphtho[1,8-ab]heptalene]
GDP-loaded KRAS G12D
  IC50: 100 nM
GP2D (KRAS G12D) cells
  EC50: 1000 nM

## C#Cc1c(F)ccc2cccc(-c3nc4c5c(nc(OC[C@@]67CCCN6[C@H](COc6cccc(S(F)(F)(F)(F)F)c6)CC7)nc5c3F)N3C[C@H]5CC[C@H](N5)[C@@H]3[C@@H](C)C4)c12 [Example 105, (5S,5aS,6S,9R)-2-(8-ethynyl-7-fluoronaphthalen-1-yl)-1-fluoro-5-methyl-12-(((3S,7aS)-3-((3-(pentafluoro-λ^6-sulfaneyl)phenoxy)methyl)tetrahydro-1H-pyrrolizin-7a(5H)-yl)methoxy)-4,5,5a,6,7,8,9,10-octahydro-3,10a,11,13,14-pentaaza-6,9-methanonaphtho[1,8-ab]heptalene]
GDP-loaded KRAS G12D
  IC50: 5.3 nM
GP2D (KRAS G12D) cells
  EC50: 435 nM

## C#Cc1c(F)ccc2cccc(-c3nc4c5c(nc(OCC6(CN7CCC[Si](C)(C)CC7)CC6)nc5c3F)N3C[C@H]5CC[C@H](N5)[C@@H]3[C@@H](C)C4)c12 [Example 100, (5S,5aS,6S,9R)-12-((1-((4,4-dimethyl-1,4-azasilepan-1-yl)methyl)cyclopropyl)methoxy)-2-(8-ethynyl-7-fluoronanhthalen-1-yl)-1-fluoro-5-methyl-4,5,5a,6,7,8,9,10-octahydro-3,10a,11,13,14-pentaaza-6,9-methanonaphtho[1,8-ab]heptalene]
GDP-loaded KRAS G12D
  IC50: 31.8 nM
GP2D (KRAS G12D) cells
  EC50: 373 nM

## C#Cc1c(F)ccc2cc(O)cc(-c3nc4c5c(nc(OC[C@]67CCCN6C[C@H](OC(C(F)(F)F)(C(F)(F)F)C(F)(F)F)C7)nc5c3F)N3C[C@H]5CC[C@H](N5)[C@H]3CC4)c12 [Example 144, 5-ethynyl-6-fluoro-4-((5aR,6S,9R)-1-fluoro-12-((cis-2-((1,1,1,3,3,3-hexafluoro-2-(trifluoromethyl)propan-2-yl)oxy)tetrahydro-1H-pyrrolizin-7a(5H)-yl)methoxy)-4,5,5a,6,7,8,9,10-octahydro-3,10a,11,13,14-pentaaza-6,9-methanonaphtho[1,8-ab]heptalen-2-yl)naphthalen-2-ol]
GDP-loaded KRAS G12D
  IC50: 83.1 nM
GP2D (KRAS G12D) cells
  EC50: 100 nM

## Oc1cc(-c2nc3c4c(nc(OC[C@@]56CCCN5C[C@H](F)C6)nc4c2F)N2C[C@H]4CC[C@H](N4)[C@H]2CO3)c2c(C=C(F)F)c(F)ccc2c1 [Example 10, 5-(2,2-difluorovinyl)-6-fluoro-4-((5aS,6S,9R)-1-fluoro-12-(((2R,7aS)-2-fluorotetrahydro-1H-pyrrolizin-7a(5H)-yl)methoxy)-5a,6,7,8,9,10-hexahydro-5H-4-oxa-3,10a,11,13,14-pentaaza-6,9-methanonaphtho[1,8-ab]heptalen-2-yl)naphthalen-2-ol]
GDP-loaded KRAS G12D
  IC50: 18 nM
GP2D (KRAS G12D) cells
  EC50: 250 nM

## Fc1ccc2c(-c3nc4c5c(nc(OC[C@@]67CCCN6C[C@H](F)C7)nc5c3F)N3C[C@H]5CC[C@H](N5)[C@H]3CO4)cccc2c1 [Example 66, (5aS,6S,9R)-1-fluoro-2-(6-fluoronaphthalen-1-yl)-12-(((2R,7aS)-2-fluorotetrahydro-1H-pyrrolizin-7a(5H)-yl)methoxy)-5a,6,7,8,9,10-hexahydro-5H-4-oxa-3,10a,11,13,14-pentaaza-6,9-methanonaphtho[1,8-ab]heptalene]
GDP-loaded KRAS G12D
  IC50: 860 nM
GP2D (KRAS G12D) cells
  EC50: > 1000 nM

## C#Cc1c(F)ccc2cccc(-c3nc4c5c(nc(OC[C@@]67CCCN6[C@H](CSc6cc(C(F)(F)F)ncn6)CC7)nc5c3F)N3C[C@H]5CC[C@H](N5)[C@H]3CCC4)c12 [Example 201, (6aR,7S,10R)-2-(8-ethynyl-7-fluoronaphthalen-1-yl)-1-fluoro-13-(((3S,7aS)-3-(((6-(trifluoromethyl)pyrimidin-4-yl)thio)methyl)tetrahydro-1H-pyrrolizin-7a(5H)-yl)methoxy)-5,6,6a,7,8,9,10,11-octahydro-4H-3,11a,12,14,15-pentaaza-7,10-methanocyclohepta[4,5]cycloocta[1,2,3-de]naphthalene]
GDP-loaded KRAS G12D
  IC50: 0.02 nM
GP2D (KRAS G12D) cells
  EC50: 10 nM

## C#Cc1c(F)ccc2cccc(-c3nc4c5c(nc(OCC6(CN7CCC(C(F)(F)F)CC7)CC6)nc5c3F)N3C[C@H]5CC[C@H](N5)[C@@H]3[C@@H](C)C4)c12 [Example 146, (5S,5aS,6S,9R)-2-(8-ethynyl-7-fluoronaphthalen-1-yl)-1-fluoro-5-methyl-12-((1-((4-(trifluoromethyl)piperidin-1-yl)methyl)cyclopropyl)methoxy)-4,5,5a,6,7,8,9,10-octahydro-3,10a,11,13,14-pentaaza-6,9-methanonaphtho[1,8-ab]heptalene]
GDP-loaded KRAS G12D
  IC50: 15.6 nM
GP2D (KRAS G12D) cells
  EC50: 100 nM

## Fc1cc(-c2nc3c4c(nc(OC[C@@]56CCCN5C[C@H](F)C6)nc4c2F)N2C[C@H]4CC[C@H](N4)[C@H]2CO3)c2ccccc2c1 [Example 47, (5aS,6S,9R)-1-fluoro-2-(3-fluoronaphthalen-1-yl)-12-(((2R,7aS)-2-fluorotetrahydro-1H-pyrrolizin-7a(5H)-yl)methoxy)-5a,6,7,8,9,10-hexahydro-5H-4-oxa-3,10a,11,13,14-pentaaza-6,9-methanonaphtho[1,8-ab]heptalene]
GDP-loaded KRAS G12D
  IC50: 3400 nM
GP2D (KRAS G12D) cells
  EC50: > 1000 nM

## C#Cc1c(F)ccc2cc(O)cc(-c3nc4c5c(nc(OC[C@@]67CCCN6[C@H](CN=[N+]=[N-])CC7)nc5c3F)N3C[C@H]5CC[C@H](N5)[C@H]3CO4)c12 [Example 36, 4-((5aS,6S,9R)-12-(((3S,7aS)-3-(azidomethyl)tetrahydro-1H-pyrrolizin-7a(5H)-yl)methoxy)-1-fluoro-5a,6,7,8,9,10-hexahydro-5H-4-oxa-3,10a,11,13,14-pentaaza-6,9-methanonaphtho[1,8-ab]heptalen-2-yl)-5-ethynyl-6-fluoronaphthalen-2-ol]
GDP-loaded KRAS G12D
  IC50: 0.2 nM
GP2D (KRAS G12D) cells
  EC50: 4 nM

## C#Cc1c(F)ccc2cccc(-c3nc4c5c(nc(OCC6(CN7CCN(CC(F)(F)F)CC7)CC6)nc5c3F)N3C[C@H]5CC[C@H](N5)[C@@H]3[C@@H](C)C4)c12 [Example 101, (5S,5aS,6S,9R)-2-(8-ethynyl-7-fluoronaphthalen-1-yl)-1-fluoro-5-methyl-12-((1-((4-(2,2,2-trifluoroethyl)piperazin-1-yl)methyl)cyclopropyl)methoxy)-4,5,5a,6,7,8,9,10-octahydro-3,10a,11,13,14-pentaaza-6,9-methanonaphtho[1,8-ab]heptalene]
GDP-loaded KRAS G12D
  IC50: 12.7 nM
GP2D (KRAS G12D) cells
  EC50: 175 nM

## Oc1cc(-c2nc3c4c(nc(OC[C@@]56CCCN5C[C@H](F)C6)nc4c2F)N2C[C@H]4CC[C@H](N4)[C@H]2CO3)c2c(F)c(F)c(F)c(F)c2c1 [Example 12, 5,6,7,8-tetrafluoro-4-((5aS,6S,9R)-1-fluoro-12-(((2R,7aS)-2-fluorotetrahydro-1H-pyrrolizin-7a(5H)-yl)methoxy)-5a,6,7,8,9,10-hexahydro-5H-4-oxa-3,10a,11,13,14-pentaaza-6,9-methanonaphtho[1,8-ab]heptalen-2-yl)naphthalen-2-ol]
GDP-loaded KRAS G12D
  IC50: 6 nM
GP2D (KRAS G12D) cells
  EC50: 130 nM

## C#Cc1c(F)ccc2cccc(-c3nc4c5c(nc(OC[C@@]67CCCN6[C@H](COc6ccnc(C(F)(F)F)n6)CC7)nc5c3F)N3C[C@H]5CC[C@H](N5)[C@H]3CC4)c12 [Example 151, (5aR,6S,9R)-2-(8-ethynyl-7-fluoronaphthalen-1-yl)-1-fluoro-12-(((3S,7aS)-3-(((2-(trifluoromethyl)pyrimidin-4-yl)oxy)methyl)tetrahydro-1H-pyrrolizin-7a(5H)-yl)methoxy)-4,5,5a,6,7,8,9,10-octahydro-3,10a,11,13,14-pentaaza-6,9-methanonaphtho[1,8-ab]heptalene]
GDP-loaded KRAS G12D
  IC50: 0.1 nM
GP2D (KRAS G12D) cells
  EC50: 5 nM
